pIC50: −log10 of the molar value.
Columns and labels:
[1] = molecular target: InhA enoylreductase (Mycobacterium tuberculosis, UniProt P9WGR1); test: InhA enoylreductase activity inhibition test (NADH disappearance at 340 nm); format: biochemical; conditions: read-out: InhA inhibition percentage; for inhibition at 10 µM: inhibitor concentration 10 μM, preincubation time 5 min
Description: The InhA protein was expressed in E. coli after cloning the inhA gene in a plasmidic vector of the pET type. Growing the resulting strain and inducing expression of the inhA gene with 1 mM IPTG (isopropyl β-D-thiogalactoside) leads to the production of water-soluble InhA protein at approximately 28.5 KDa (28,368 Da) (monomeric) which is purified by standard protein purification techniques. The enzyme is present in the form of a tetramer in solution and is kept in 50 mM Hepes buffer, 50% glycerol at −20° C.
The InhA enoylreductase activity is monitored by UV spectrometry, by monitoring the disappearance of the signal of the reduced cofactor NADH at 340 nm as a function of time. The percentage inhibition is calculated by subtracting from 100 the ratio of the initial speeds (V) measured during kinetics with and without inhibitor, multiplied by 100:% inhibition=100−(Vinhib/Vblank*100). The initial speed is measured by drawing the tangent to the curve DO=f(time) at time zero.
The enzymatic reaction is carried out in a final volume of 100 μl (in a quartz vessel, optical path 1 cm). The absorption of each reaction mixture is determined with a UVIKON 293 spectrophotometer (Bio-Tek Kontron Instruments) connected to a thermostatically controlled bath which makes it possible to maintain the temperature of the vessel at 25° C. A baseline is produced during preincubation immediately before measurements begin. The measurements are carried out over 3 min after a preincubation of 5 min or 2 h.
The preincubation is carried out in 90 μl (total volume) of a solution of PIPES buffer 30 mM, NaCl 150 mM, pH=6.8 at 25° C. containing 100 nM of InhA, 100 μM, 20 μM or 10 μM of the compound to be tested (or 500 nM of the pool of INH-NAD adducts constituting the control inhibitors) and 200 μM of NADH. After 5 min or 2 h of preincubation, the addition of 35 μM of the substrate 2-trans-decenoyl-CoA initiates the reaction. […]

[2] = system: Corynebacterium glutamicum; test: Growth inhibition of Corynebacterium glutamicum, MTT test
Description: The Corynebacterium glutamicum strain is cultivated in a BHI (Brain-Heart Infusion) medium at 30° C. with stirring at 200 rpm. The DO of the culture is measured directly and set to a value of 0.002-0.003 by dilution in the LB culture medium. C. glutamicum also grows in the LB medium, and this is used instead of BHI, which is strongly coloured and interferes with the DO reading at 570 nm.
The stock solutions are prepared in DMSO at a concentration 100 times greater than the highest concentration to be tested.
The test is carried out in the same way as the test on M. smegmatis.
The tests are carried out on 96-well NUNC microplates (Merck-eurolab). All the concentrations were tested at least twice.
Each well contains 100 μl of compound in solution in the culture medium (LB with 1% final DMSO). Subsequently, 100 μl of bacterial suspension having DO 0.002 at 650 nm are added.
The plate is sealed using parafilm and incubated at 30° C. for C. glutamicum. After two hours of incubation, 50 μl of a 1 mg/ml solution of tetrazolium salt (MTT) are added to each well. After one hour of incubation at 30° C. for C. glutamicum, 100 μl of lysis buffer are added to each well and the plate is left with stirring at ambient temperature until the solution is fully homogeneous.
The optical density is measured at 570 nm with a μQuant 96-well microplate spectrophotometer, Bio-tek Instruments, Inc.

Chain of InhA enoylreductase (P9WGR1 whole entry, looked up): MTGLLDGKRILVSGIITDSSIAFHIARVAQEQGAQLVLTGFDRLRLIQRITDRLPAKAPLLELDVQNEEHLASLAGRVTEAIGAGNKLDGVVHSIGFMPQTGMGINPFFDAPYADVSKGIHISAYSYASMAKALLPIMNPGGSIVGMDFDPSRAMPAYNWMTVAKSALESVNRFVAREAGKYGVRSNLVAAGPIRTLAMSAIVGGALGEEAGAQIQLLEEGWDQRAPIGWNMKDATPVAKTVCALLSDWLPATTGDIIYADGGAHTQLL

CCCCCCCCCCCCc1cccc(C2(O)NC(=O)c3c[n+](CC(=O)OCC)ccc32)c1 (centres unmarked) [Example 3, 1-(3-dodecylphenyl)-5-[2-(ethyloxy)-2-oxoethyl]-1-hydroxy-3-oxo-1,2-dihydropyrrolo[3,4-c]pyridinium bromide]
inhibition at 10 µM [1]: 19%

CCCCCCCCCCCCc1cccc(C(=O)C2C=CN(CC(=O)OCC)C=C2C(N)=O)c1 (centres unmarked) [Example 4, ethy 3-aminocarbonyl-[4-(3-dodecylbenzoyl)-1,4-dihydro-pyridin-1-yl]acetate]
inhibition at 10 µM [1]: 25%

NNC(=O)c1ccncc1 [Isoniazide]
pIC50 ([2]; Corynebacterium glutamicum, read-out: CI50 (concentration corresponding to 50% inhibition) on the bacterial strain C. glutamicum): < 2.30 | activity on C. glutamicum ([2]; at 5 mM): does not exhibit any activity

CCCCCCCCCCCCOc1cccc(C2(O)NC(=O)c3cnccc32)c1 (centres unmarked) [Example 2, 1-(3-dodecyloxyphenyl)-1-hydroxy-1,2-dihydropyrrolo[3,4-c]pyridin-3-one]
inhibition at 100 µM ([1]; inhibitor concentration 100 μM, preincubation time 2 h (*)): 80%
